This note sets out measurements from US12448369B2 (Edgewise Therapeutics, Inc., priority 2023, dated 2025).

Assay [1] concerns Rabbit Psoas myofibrils (skeletal myosin ATPase). Description: Myofibril ATPase assay, rabbit psoas (skeletal) myofibrils. Type of assay: biochemical. The following applies: rabbit psoas myofibrils. The procedure, abridged:
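Rabbit psoas skeletal myofibrils in PIPES/CaCl2/EGTA pCa buffer, pH 7.0. ATPase rate followed by PK-LDH-coupled NADH loss at 340 nm, read every 1.5–2 min for 75 min. Slopes normalized to vehicle (100%) and fitted to a 4-parameter logistic; values are Y75 (25% inhibition) or Y125 (25% activation) concentrations.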

For assay [2], the system named is Porcine atria myofibrils (atrial myosin ATPase). Description: Myofibril ATPase assay, porcine atria myofibrils. The following applies: porcine atria myofibrils. Format: biochemical. The procedure, abridged:
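Coupled PK-LDH reaction links ADP from myosin ATPase to NADH loss, read at 340 nm every 1.5-2 min for 75 min. Slopes (mAU/min) normalized to vehicle-only wells (100%) and fit to a 4-parameter logistic; Y75 is the concentration cutting activity by 25%, Y125 is reported for activators.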

In assay [3] the target is T1, Porcine ventricle myofibrils (ventricular myosin ATPase) (Sus scrofa, UniProt P79293).
T1 construct: Myofibrils from porcine cardiac muscle was isolated from the left ventricle of Yucatan minipigs; tissue Exemplar Genetics; host or cells: left ventricle of Yucatan minipigs, myofibrils prepared in house
T1 sequence (P79293 whole entry): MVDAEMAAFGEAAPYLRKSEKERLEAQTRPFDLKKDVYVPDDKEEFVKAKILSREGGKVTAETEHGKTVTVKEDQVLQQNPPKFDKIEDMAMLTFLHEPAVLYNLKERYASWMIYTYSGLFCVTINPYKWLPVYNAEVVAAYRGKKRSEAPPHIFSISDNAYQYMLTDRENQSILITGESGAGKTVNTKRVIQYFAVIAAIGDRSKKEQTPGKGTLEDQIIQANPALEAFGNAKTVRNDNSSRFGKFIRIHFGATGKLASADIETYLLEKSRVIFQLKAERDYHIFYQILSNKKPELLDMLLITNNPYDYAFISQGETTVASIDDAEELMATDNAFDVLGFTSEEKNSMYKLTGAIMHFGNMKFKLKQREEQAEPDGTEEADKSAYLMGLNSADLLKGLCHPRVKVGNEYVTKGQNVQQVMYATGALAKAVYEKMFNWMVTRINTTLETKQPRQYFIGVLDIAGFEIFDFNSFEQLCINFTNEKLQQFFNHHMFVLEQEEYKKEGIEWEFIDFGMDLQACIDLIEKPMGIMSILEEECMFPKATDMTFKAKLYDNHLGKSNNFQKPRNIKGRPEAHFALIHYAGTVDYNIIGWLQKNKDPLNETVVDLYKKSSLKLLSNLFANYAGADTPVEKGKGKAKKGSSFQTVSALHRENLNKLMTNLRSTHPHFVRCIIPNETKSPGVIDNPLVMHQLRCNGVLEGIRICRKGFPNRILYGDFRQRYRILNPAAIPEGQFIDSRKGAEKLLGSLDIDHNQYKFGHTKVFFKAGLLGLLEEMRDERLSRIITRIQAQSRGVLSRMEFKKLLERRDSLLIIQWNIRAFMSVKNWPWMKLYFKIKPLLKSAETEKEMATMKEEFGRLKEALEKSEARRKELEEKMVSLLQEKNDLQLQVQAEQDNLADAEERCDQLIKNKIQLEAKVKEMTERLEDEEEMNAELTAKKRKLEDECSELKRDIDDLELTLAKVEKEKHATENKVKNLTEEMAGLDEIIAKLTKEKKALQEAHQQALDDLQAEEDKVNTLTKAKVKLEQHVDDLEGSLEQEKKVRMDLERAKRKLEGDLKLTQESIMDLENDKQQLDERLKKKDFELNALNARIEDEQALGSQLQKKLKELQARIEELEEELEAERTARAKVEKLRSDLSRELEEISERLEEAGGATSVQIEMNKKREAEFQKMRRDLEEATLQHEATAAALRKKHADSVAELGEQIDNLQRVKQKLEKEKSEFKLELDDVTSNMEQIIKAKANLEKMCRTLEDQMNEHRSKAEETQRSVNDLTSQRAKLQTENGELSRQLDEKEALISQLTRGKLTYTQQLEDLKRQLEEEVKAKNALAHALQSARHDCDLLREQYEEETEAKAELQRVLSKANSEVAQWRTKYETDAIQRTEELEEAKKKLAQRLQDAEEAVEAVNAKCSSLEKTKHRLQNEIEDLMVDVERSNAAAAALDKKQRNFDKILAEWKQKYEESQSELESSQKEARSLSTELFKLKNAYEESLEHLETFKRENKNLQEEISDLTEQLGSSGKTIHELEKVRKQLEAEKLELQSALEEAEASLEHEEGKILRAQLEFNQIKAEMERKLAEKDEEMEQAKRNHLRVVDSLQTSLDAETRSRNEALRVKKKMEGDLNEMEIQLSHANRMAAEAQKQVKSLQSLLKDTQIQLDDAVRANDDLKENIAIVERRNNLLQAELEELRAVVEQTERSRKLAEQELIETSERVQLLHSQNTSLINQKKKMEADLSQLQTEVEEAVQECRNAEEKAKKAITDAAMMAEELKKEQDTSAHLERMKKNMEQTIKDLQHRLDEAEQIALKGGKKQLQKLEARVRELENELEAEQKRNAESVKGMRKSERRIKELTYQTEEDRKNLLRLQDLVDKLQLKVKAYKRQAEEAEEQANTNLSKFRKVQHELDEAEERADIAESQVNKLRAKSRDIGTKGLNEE
In words: Myofibril ATPase assay, porcine ventricle myofibrils. The following applies: porcine ventricle myofibrils. Format: biochemical, porcine (Yucatan minipigs). The procedure, abridged:
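Read-out: A340 kinetic, NADH consumption coupled to ADP via PK-LDH, 75 min. Yucatan minipig LV myofibrils, pCa buffer (PIPES/CaCl2/EGTA, pH 7.0). Linear-regression slope (mAU/min), vehicle = 100%, 4PL fit; Y75 or Y125 reported.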

Where [4] appears, read: Y75 value (75% activity relative to no compound).

In the case of `Cc1nccc2[nH]c(=O)c(CC(=O)N[C@@H](C)c3ccc(F)cc3F)c(C(F)(F)F)c12` [compound 430], the “Skeletal EC25” value in assay [1] (Y75 value) turned out to be 0.25 µM. Further, the “Atrial EC25” value in assay [2] (setting [4]) worked out at 0.38 µM. The “Ventricular EC25” value in assay [3] (Y75 value) was determined as 11.63 µM.

For `Cc1cccc2[nH]c(=O)c(CC(=O)N[C@@H](C)c3ccc(C#N)cn3)c(C#N)c12` [compound 1111], in assay [1] (Y75 value (no ‡ mark)), the “Skeletal EC25” value was determined as 0.26 µM. In addition, in assay [2] (Y75 value (no ‡ mark)), the “Atrial EC25” value came to 0.49 µM. Also, the “Ventricular EC25” value in assay [3] (Y75 value (no ‡ mark)) was 2.28 µM.

In the case of `C[C@H](NC(=O)Cc1cc2c(C#N)nccc2[nH]c1=O)c1ccc(F)cn1` [compound 475], the “Skeletal EC25” value in assay [1] (Y75 value) is 2.98 µM. Besides, the “Atrial EC25” value in assay [2] (setting [4]) worked out at 100.00 µM. Further, the “Ventricular EC25” value in assay [3] (Y75 value) stood at 39.76 µM.

Consider `C[C@H](NC(=O)Cc1c(C2CC2)c2cc(F)ccc2[nH]c1=O)c1ccc(C#N)cc1F` [compound 74], for which, in assay [1] (Y75 value (no ‡ mark)), the “Skeletal EC25” value is 0.01 µM. For the same compound, the “Atrial EC25” value in assay [2] (Y75 value (no ‡ mark)) came to 0.69 µM. Also, the “Ventricular EC25” value in assay [3] (Y75 value (no ‡ mark)) came out at 0.46 µM.

Take `Cc1c(CC(=O)N[C@@H](C)c2ncc(C#N)cn2)c(=O)[nH]c2cc(F)ccc12` [compound 1041]: the “Skeletal EC25” value in assay [1] (Y75 value (no ‡ mark)) was determined as 7.39 µM. Besides, in assay [2] (Y75 value (no ‡ mark)), the “Atrial EC25” value is 18.0 µM. Moreover, the “Ventricular EC25” value in assay [3] (Y75 value (no ‡ mark)) was 76 µM.

For the compound `Cc1c(C2(C(=O)N[C@H]3CCc4cc(C#N)cnc43)CC2)c(=O)[nH]c2ccc(F)c(F)c12` (single isomer, unassigned) [compound 4804], in assay [1] (Y75 value (no ‡ mark)), the “Skeletal EC25” value turned out to be 100.00 µM. In addition, in assay [2] (Y75 value (no ‡ mark)), the “Atrial EC25” value was determined as 4.71 µM. In addition, the “Ventricular EC25” value in assay [3] (Y75 value (no ‡ mark)) was determined as 100.00 µM.

Regarding `Cc1c(C(F)(F)C(=O)N[C@H](C)c2cccc(C#N)n2)c(=O)[nH]c2ccc(F)cc12` (single isomer, unassigned) [compound 2565], in assay [1] (Y75 value (no ‡ mark)), the “Skeletal EC25” value came to 100.00 µM. Besides, the “Atrial EC25” value in assay [2] (Y75 value (no ‡ mark)) turned out to be 14.39 µM. The “Ventricular EC25” value in assay [3] (Y75 value (no ‡ mark)) was found to be 100.00 µM.

`Cc1c(CC(=O)N[C@@H](C)c2ccc(C#N)cn2)c(=O)[nH]c2ccc(F)cc12` [compound 1128]: in assay [1] (Y75 value (no ‡ mark)), the “Skeletal EC25” value worked out at 0.09 µM. Besides, in assay [2] (Y75 value (no ‡ mark)), the “Atrial EC25” value is 0.52 µM. Moreover, the “Ventricular EC25” value in assay [3] (Y75 value (no ‡ mark)) was determined as 0.70 µM.

`C[C@@H](NC(=O)Cc1cc2c(F)c(F)ccc2[nH]c1=O)c1ncc(F)cc1F` [compound 33]: the “Skeletal EC25” value in assay [1] (Y75 value (no ‡ mark)) came to 0.29 µM. For the same compound, the “Atrial EC25” value in assay [2] (Y75 value (no ‡ mark)) is 0.17 µM. Further, the “Ventricular EC25” value in assay [3] (Y75 value (no ‡ mark)) was 0.46 µM.

Take `Cc1nccc2[nH]c(=O)c(CC(=O)N[C@@H](C)c3ccc(C#N)cn3)c(C)c12` (single isomer, unassigned) [compound 254]: the “Skeletal EC25” value in assay [1] (Y75 value) turned out to be 1.78 µM. Also, the “Atrial EC25” value in assay [2] (setting [4]) amounted to 18.17 µM. Besides, the “Ventricular EC25” value in assay [3] (Y75 value) was found to be 23.41 µM.

In the case of `CC(NC(=O)C1(c2cc3c(F)c(F)ccc3[nH]c2=O)CC1)c1cccc(C#N)n1` (single isomer, unassigned) [Compound 2569], the “Skeletal EC25” value in assay [1] (Y75 value (no ‡ mark)) is 100.00 µM. The “Atrial EC25” value in assay [2] (Y75 value (no ‡ mark)) was 4.84 µM. Also, in assay [3] (Y75 value (no ‡ mark)), the “Ventricular EC25” value was 100.00 µM.

As to `Cc1c(CC(=O)N[C@H](C)c2ccc(C#N)cn2)c(=O)[nH]c2cc(F)c(F)cc12` [compound 1112], the “Skeletal EC25” value in assay [1] (Y75 value (no ‡ mark)) was 3.86 µM. Besides, in assay [2] (Y75 value (no ‡ mark)), the “Atrial EC25” value came to 5.01 µM. In assay [3] (Y75 value (no ‡ mark)), the “Ventricular EC25” value was found to be 2.09 µM.

For the compound `C[C@H](NC(=O)Cc1cc2cnccc2[nH]c1=O)c1ccc(F)cc1F` [compound 441], the “Skeletal EC25” value in assay [1] (Y75 value) amounted to 1.88 µM. In assay [2] (setting [4]), the “Atrial EC25” value was 3.48 µM. For the same compound, the “Ventricular EC25” value in assay [3] (Y75 value) was determined as 100.00 µM.

Turning to `Cc1c(C(F)(F)C(=O)N[C@H](C)c2cc(C#N)ccn2)c(=O)[nH]c2ccc(F)cc12` (single isomer, unassigned) [compound 2575], in assay [1] (Y75 value (no ‡ mark)), the “Skeletal EC25” value was found to be 14.65 µM. Besides, the “Atrial EC25” value in assay [2] (Y75 value (no ‡ mark)) was found to be 16.13 µM. Besides, the “Ventricular EC25” value in assay [3] (Y75 value (no ‡ mark)) was determined as 20.79 µM.

As to `C[C@H](NC(=O)Cc1cc2cc(F)c(F)cc2[nH]c1=O)c1ncc(C#N)cn1` (single isomer, unassigned) [compound 2036], the “Skeletal EC25” value in assay [1] (Y75 value (no ‡ mark)) worked out at 100.00 µM. The “Atrial EC25” value in assay [2] (Y75 value (no ‡ mark)) is 100.00 µM. Besides, the “Ventricular EC25” value in assay [3] (Y75 value (no ‡ mark)) came out at 100.00 µM.

`Cc1c(CC(=O)N[C@@H](C)c2ccc(F)cc2F)c(=O)[nH]c2ccc(F)c(C3CC3)c12` [compound 101]: in assay [1] (Y75 value (no ‡ mark)), the “Skeletal EC25” value amounted to 0.23 µM. Also, in assay [2] (Y75 value (no ‡ mark)), the “Atrial EC25” value was found to be 0.04 µM. Besides, the “Ventricular EC25” value in assay [3] (Y75 value (no ‡ mark)) is 0.11 µM.

In the case of `Cc1nc(C#N)cnc1[C@H](C)NC(=O)C(F)(F)c1c(C)c2cc(F)ccc2[nH]c1=O` (single isomer, unassigned) [compound 2568], the “Skeletal EC25” value in assay [1] (Y75 value (no ‡ mark)) was 0.11 µM. Also, the “Atrial EC25” value in assay [2] (Y75 value (no ‡ mark)) came to 0.57 µM. Also, in assay [3] (Y75 value (no ‡ mark)), the “Ventricular EC25” value is 0.58 µM.

Turning to `Cc1c(CC(=O)N[C@@H](C)c2ccc(F)cc2F)c(=O)[nH]c2ccnc(NC3CC3)c12` [compound 276], in assay [1] (Y75 value), the “Skeletal EC25” value came out at 0.14 µM. In assay [2] (setting [4]), the “Atrial EC25” value was 1.25 µM. Besides, in assay [3] (Y75 value), the “Ventricular EC25” value turned out to be 15.06 µM.

As to `Cc1c(CC(=O)N[C@@H](CO)c2ccc(F)cc2F)c(=O)[nH]c2ccnc(C(F)(F)F)c12` [compound 232], the “Skeletal EC25” value in assay [1] (Y75 value) came out at 0.02 µM. The “Atrial EC25” value in assay [2] (setting [4]) worked out at 0.47 µM. In addition, the “Ventricular EC25” value in assay [3] (Y75 value) came out at 2.74 µM.

As to `C[C@H](NC(=O)Cc1cc2cc(F)ccc2[nH]c1=O)c1ccc(C#N)cn1` [compound 1126], the “Skeletal EC25” value in assay [1] (Y75 value (no ‡ mark)) was 100.00 µM. The “Atrial EC25” value in assay [2] (Y75 value (no ‡ mark)) came to 100.00 µM. In assay [3] (Y75 value (no ‡ mark)), the “Ventricular EC25” value was determined as 100.00 µM.

Regarding `Cc1cccc([C@@H](CO)NC(=O)Cc2c(C)c3c(C)nccc3[nH]c2=O)c1` (single isomer, unassigned) [compound 294], the “Skeletal EC25” value in assay [1] (Y75 value) stood at 100.00 µM. In addition, the “Atrial EC25” value in assay [2] (setting [4]) came to 100.00 µM. The “Ventricular EC25” value in assay [3] (Y75 value) came to 100.00 µM.

Turning to `Cc1nc(C#N)ncc1[C@@H](C)NC(=O)Cc1cc2cc(F)c(F)cc2[nH]c1=O` [compound 1096], the “Skeletal EC25” value in assay [1] (Y75 value (no ‡ mark)) turned out to be 12.10 µM. The “Atrial EC25” value in assay [2] (Y75 value (no ‡ mark)) was 31.81 µM. The “Ventricular EC25” value in assay [3] (Y75 value (no ‡ mark)) is 100.00 µM.

For the compound `Cc1c(CC(=O)N[C@H](CO)c2ccc(F)cc2F)c(=O)[nH]c2ccnc(C#N)c12` [compound 229], the “Skeletal EC25” value in assay [1] (Y75 value) stood at 4.20 µM. For the same compound, the “Atrial EC25” value in assay [2] (setting [4]) was found to be 8.21 µM. In addition, the “Ventricular EC25” value in assay [3] (Y75 value) was found to be 34.95 µM.

For `Cc1c(CC(=O)N[C@H](C)c2ccc(C#N)cc2F)c(=O)[nH]c2ccc(C(F)(F)F)nc12` (single isomer, unassigned) [compound 208], the “Skeletal EC25” value in assay [1] (Y75 value) came to 0.15 µM. In addition, the “Atrial EC25” value in assay [2] (setting [4]) amounted to 2.16 µM. In assay [3] (Y75 value), the “Ventricular EC25” value was 9.68 µM.

For the compound `Cc1c(CC(=O)N[C@H](C)c2ccc(C#N)nn2)c(=O)[nH]c2cccc(C#N)c12` [compound 1038], in assay [1] (Y75 value (no ‡ mark)), the “Skeletal EC25” value worked out at 0.34 µM. Also, the “Atrial EC25” value in assay [2] (Y75 value (no ‡ mark)) was determined as 0.42 µM. Also, the “Ventricular EC25” value in assay [3] (Y75 value (no ‡ mark)) came to 2.7 µM.

`COc1ccc2[nH]c(=O)c(CC(=O)N[C@@H](C)c3ccc(F)cc3F)c(C)c2c1C#N` [compound 1153]: in assay [1] (Y75 value (no ‡ mark)), the “Skeletal EC25” value was 0.66 µM. Also, the “Atrial EC25” value in assay [2] (Y75 value (no ‡ mark)) was found to be 0.89 µM. Besides, the “Ventricular EC25” value in assay [3] (Y75 value (no ‡ mark)) was 2.86 µM.

For `CC#Cc1nccc2[nH]c(=O)c(CC(=O)N[C@@H](C)c3ccc(F)cc3F)c(C)c12` [compound 350], the “Skeletal EC25” value in assay [1] (Y75 value) stood at 0.06 µM. Further, the “Atrial EC25” value in assay [2] (setting [4]) came to 0.99 µM. Besides, the “Ventricular EC25” value in assay [3] (Y75 value) is 1.99 µM.
